Experimental findings from patent US11787812B2, “Substituted pyrazolo[4,3-d]pyrimidines and imidazo[5,1 -f][1,2,4]triazines as androgen receptor and phosphodiesterase dual inhibitors” (ILDONG PHARMACEUTICAL CO., LTD., priority 2020, dated 2023) are described below.

Assay [1] deals with androgen receptor (AR) (Homo sapiens (Human), UniProt P10275). Put plainly: Androgen receptor (AR) reporter assay, antagonist screen activated by R1881. In kind it is cell-based. As to conditions: AR-UAS-bla GripTite 293 cells, antagonist mode, R1881 at EC80. The protocol: The protocols and results of this Example were carried out and obtained by Thermofisher Scientific.
Chain of androgen receptor (AR) (P10275 other isoform, or with tags, fused parts or gaps): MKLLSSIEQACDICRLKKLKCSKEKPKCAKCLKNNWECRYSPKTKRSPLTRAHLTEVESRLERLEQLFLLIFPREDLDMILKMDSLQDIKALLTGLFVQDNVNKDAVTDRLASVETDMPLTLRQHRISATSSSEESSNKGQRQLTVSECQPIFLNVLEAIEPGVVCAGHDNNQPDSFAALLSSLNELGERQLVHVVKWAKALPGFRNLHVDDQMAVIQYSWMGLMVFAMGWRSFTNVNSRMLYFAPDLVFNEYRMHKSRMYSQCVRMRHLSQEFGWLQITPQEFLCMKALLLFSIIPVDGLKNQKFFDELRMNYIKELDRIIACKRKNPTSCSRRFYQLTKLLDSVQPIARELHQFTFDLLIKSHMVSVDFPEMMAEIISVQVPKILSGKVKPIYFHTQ
Test compounds were received at 1000× (or greater) of the desired starting concentration in 100% DMSO. If compounds were supplied at greater that 1000× concentration, an initial dilution is made in 100% DMSO to bring the compounds to 1000× concentration. The 1000× test compounds were serially diluted (10 point ½-log increments) in 100% DMSO.
The Substrate Loading Solution consists of three Life Technologies reagents: Solution A (10 mM LiveBLAzer™-FRET B/G Substrate), Solution B and Solution C.
Androgen Receptor (AR)—Antagonist Screen, Activated by R1881
AR-UAS-bla GripTite™ 293 cells were thawed and resuspended in Assay Media (DMEM phenol red free, 2% CD-treated FBS, 0.1 mM NEAA, 1 mM Sodium Pyruvate, 100 U/mL/100 μg/mL Pen/Strep) to a concentration of 312,500 cells/mL. 4 μL of a 10× serial dilution of Cyproterone Acetate (control antagonist starting concentration, 3,160 nM) or compounds are added to appropriate wells of a Poly-D-Lysine assay plate. 32 μL of cell suspension was added to the wells and pre-incubated at 37° C./5% CO2 in a humidified incubator with compounds and control antagonist titration for 30 minutes. 4 μL of 10× control agonist R1881 at the pre-determined EC80 concentration was added to wells containing the control antagonist or compounds. The plate was incubated for 16-24 hours at 37° C./5% CO2 in a humidified incubator. 8 μL of 1 μM Substrate Loading Solution is added to each well and the plate was incubated for 2 hours at room temperature. The plate was read on a fluorescence plate reader (Tecan Safire^2).

Assay [2] concerns the target human PDE-5A1 (Homo sapiens (Human), UniProt O76074). Put plainly: Human PDE-5A1 inhibition assay (fluorescence polarization, FAM-cGMP). The assay is classed as biochemical. To be noted: human PDE5A1, 100 nM FAM-cGMP, 60 minutes room temperature. An excerpt: This example illustrates the in vitro inhibition of human PDE-5A1 by exemplary compounds of this disclosure (e.g., as described herein).
Sildenafil citrate (Catalog no. LKT-S3313, Axxora, San Diego, CA), Vardenafil hydrochloride trihydrate (Catalog no. SML2103, Sigma-Aldrich, St. Louis, MO), PDE Assay Buffer (Catalog no. 60393, BPS bioscience, San Diego, CA), PDE Binding Agent (Catalog no. 60390, BPS bioscience, San Diego, CA) and PDE Binding Agent Diluent (cGMP, Catalog no. 60392, BPS bioscience, San Diego, CA) were used for assays. Test compounds were supplied by Ildong Pharmaceuticals Co., Ltd.
The serial dilution of the compounds was first performed in 100% DMSO with the highest concentration at 1 mM and 0.1 mM. Each intermediate compound dilution (in 100% DMSO) will then get directly diluted 10× fold into assay buffer for 10% DMSO and 5 μL of the dilution was added to a 50 μL reaction so that the final concentration of DMSO is 1% in all reactions.
The enzymatic reactions were conducted at room temperature for 60 minutes in a 50 μL mixture containing PDE assay buffer, 100 nM FAM-cGMP, a PDE enzyme (Table 2) and the test compounds.
After enzymatic reaction, 100 μL of a binding solution (1:100 dilution of the binding agent with the binding agent diluent) was added to each reaction and the reaction was performed at room temperature for 60 minutes.
Fluorescence intensity was measured at excitation of 485 nm and an emission of 528 nm using a Tecan Infinite M1000 microplate reader.
PDE activity assays were performed in duplicate at each concentration. Fluorescence intensity is converted to fluorescence polarization using the Tecan Magellan6 software. The fluorescence polarization (FPt) in absence of the compound in each data set was defined as 100% activity. In the absence of PDE and the compound, the value fluorescent polarization (FPb) in each data set was defined as 0% activity. The percent activity in the presence of compound was calculated according to Equation 1:
[formula] where FP=the fluorescence polarization in the presence of the compound.
The values of % activity versus a series of compound concentrations were then plotted using non-linear regression analysis of Sigmoidal dose-response curve generated with Equation 2:
[formula] where Y=percent activity, B=minimum percent activity, T=maximum percent activity, X=logarithm of compound, and Hill Slope=slope factor or Hill coefficient. The IC50 value was determined by the concentration causing a half-maximal percent activity. Results
For orientation: In fluorescence polarisation assays a small probe gives low polarisation when free and higher when bound to something large.

Assay [3] addresses Human androgen receptors (Homo sapiens (Human), UniProt P10275, T878A). Put plainly: Androgen receptor (AR) radioligand binding assay. The protocol:
Methods employed in this study have been adapted from the following literature procedure.
Human androgen receptors obtained from human LNCaP cells are used in modified HEPES buffer pH 7.4. […] Non-specific binding is estimated in the presence of 1 μM testosterone. […] (See, e.g., Traish, A. M et al., Binding of 7α, 17α-dimethyl-19-nortestosterone (Mibolerone) to androgen and progesterone receptors in human and animal tissues. Endocrinology. 118(4): 1327-1333, 1986).
Compounds are screened at 10 μM.
Where presented, IC50 values were determined by a non-linear, least squares regression analysis using MathIQ™ (ID Business Solutions Ltd., UK).

Where [4] appears, read: receptors from human LNCaP cells, 0.5 nM [3H]Methyltrienolone, 20 hours at 4° C., read-out: AR IC50.

Where two headings read alike, the source gives them in different places.

Chain of Human androgen receptors (P10275 whole entry T878A): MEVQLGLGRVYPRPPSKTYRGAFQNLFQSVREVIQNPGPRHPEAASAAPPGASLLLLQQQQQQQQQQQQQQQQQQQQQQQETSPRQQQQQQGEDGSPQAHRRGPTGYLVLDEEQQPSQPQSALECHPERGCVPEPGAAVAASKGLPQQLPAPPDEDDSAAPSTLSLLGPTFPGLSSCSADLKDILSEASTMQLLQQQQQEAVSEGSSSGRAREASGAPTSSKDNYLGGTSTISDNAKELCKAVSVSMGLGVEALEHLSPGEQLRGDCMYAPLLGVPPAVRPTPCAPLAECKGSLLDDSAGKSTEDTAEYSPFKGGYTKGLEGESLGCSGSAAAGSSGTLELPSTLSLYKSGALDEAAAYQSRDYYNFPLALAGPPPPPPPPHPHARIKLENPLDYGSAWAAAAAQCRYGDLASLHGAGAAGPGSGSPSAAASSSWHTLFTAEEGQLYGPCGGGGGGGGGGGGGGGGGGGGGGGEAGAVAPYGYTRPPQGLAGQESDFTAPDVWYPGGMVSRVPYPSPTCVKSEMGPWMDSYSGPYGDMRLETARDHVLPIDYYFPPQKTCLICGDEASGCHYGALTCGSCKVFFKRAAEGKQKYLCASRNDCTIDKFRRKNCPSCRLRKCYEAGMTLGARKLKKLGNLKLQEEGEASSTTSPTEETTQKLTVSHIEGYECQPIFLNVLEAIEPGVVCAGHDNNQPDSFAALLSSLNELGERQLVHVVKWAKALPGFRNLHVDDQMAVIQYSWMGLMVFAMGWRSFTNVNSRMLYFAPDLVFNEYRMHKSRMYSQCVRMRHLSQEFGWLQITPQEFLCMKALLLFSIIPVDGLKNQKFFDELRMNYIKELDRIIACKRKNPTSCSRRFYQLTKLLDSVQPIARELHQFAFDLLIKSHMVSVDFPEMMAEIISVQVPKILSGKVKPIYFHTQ

Consider `CCCc1nn(C)c2c(=O)[nH]c(-c3cc(N4C(=S)N(c5ccc(C#N)c(C(F)(F)F)c5)C(=O)C4(C)C)ccc3OCC)nc12` [Compound 13, 4-(3-(4-ethoxy-3-(1-methyl-7-oxo-3-propyl-6,7-dihydro-1H-pyrazolo[4,3-d]pyrimidin-5-yl)phenyl)-4,4-dimethyl-5-oxo-2-thioxoimidazolidin-1-yl)-2-(Influoromethyl)benzonilrile], for which the IC50 is 500 to 1000 nM in assay [1], above 100 nM in assay [2] and above 200 nM in assay [3] (setting [4]).

As to `CCCc1nc(C)c2c(=O)[nH]c(-c3cc(S(=O)(=O)NC4CC(=O)N(c5ccc(C#N)c(C(F)(F)F)c5)C4)ccc3OCC)nn12` (stereo not drawn) [Compound 33, N-(1-(4-cyano-3-(trifluoromethyl)phenyl)-5-oxopyrrolidin-3-yl)-4-ethoxy-3-(5-methyl-4-oxo-7-propyl-3,4-dihydroimidazo[5,1-f][1,2,4]triazin-2-yl)benzenesulfonamide], the half-maximal inhibitory concentration (IC50) in assay [1] is above 100 nM; in assay [2], at most 10 nM; in assay [3] (setting [4]) it was above 200 nM.

For `CCCc1nc(C)c2c(=O)[nH]c(-c3cc(S(=O)(=O)NC4CN(c5ccc(C#N)c(C(F)(F)F)c5)C4)ccc3OCC)nn12` [Compound 29, N-(1-(4-cyano-3-(trifluoromethyl)phenyl)azetidin-3-yl)-4-ethoxy-3-(5-methyl-4-oxo-7-propyl-3,4-dihydroimidazo[5,1-f][1,2,4]triazin-2-yl)benzenesulfonamide], the IC50 in assay [1] is 500 to 1000 nM; in assay [2], at most 10 nM; in assay [3], 50 to 200 nM.

On to `CCCc1nn(C)c2c(=O)[nH]c(-c3cc(N4C(=S)N(c5ccc(C#N)c(C(F)(F)F)c5)C(=O)C45CCC5)ccc3OCC)nc12` [Compound 21, 4-(5-(4-ethoxy-3-(1-methyl-7-oxo-3-propyl-6,7-dihydro-1H-pyrazolo[4,3-d]pyrimidin-5-yl)phenyl)-8-oxo-6-thioxo-5,7-diazaspiro[3.4]octan-7-yl)-2-(trifluoromethyl)benzonitrile], for which the figures for the IC50 in assay [1], in assay [2] and in assay [3] (setting [4]) were at most 500 nM, above 100 nM and above 200 nM, respectively.

As to `CCCc1nn(C)c2c(=O)[nH]c(-c3cc(N4C(=S)N(c5cnc(C#N)c(C(F)(F)F)c5)C(=O)C45CCC5)ccc3OCC)nc12` [Compound 23, 5-(5-(4-ethoxy-3-(1-methyl-7-oxo-3-propyl-6,7-dihydro-1H-pyrazolo[4,3-d]pyrimidin-5-yl)phenyl)-8-oxo-6-thioxo-5,7-diazaspiro[3.4]octan-7-yl)-3-(trifluoromethyl)picolinonitrile], the IC50 in assay [1] is at most 500 nM; in assay [2], above 100 nM; in assay [3] (setting [4]), above 200 nM.

As for `CCCc1nc(C)c2c(=O)[nH]c(-c3cc(N4C(=S)N(c5ccc(C#N)c(C(F)(F)F)c5F)C(=O)C45CCOC5)ccc3OCC)nn12` (stereo not drawn) [Compound 49, 4-(1-(4-ethoxy-3-(5-methyl-4-oxo-7-propyl-3,4-dihydroimidazo[5,1-f][1,2,4]triazin-2-yl)phenyl)-4-oxo-2-thioxo-7-oxa-1,3-diazaspiro[4.4]nonan-3-yl)-3-fluoro-2-(trifluoromethyl)benzonitrile], the IC50 in assay [1] is 500 to 1000 nM; in assay [2], at most 10 nM; in assay [3] (setting [4]) it was below 50 nM.

Take `CCCc1nc(C)c2c(=O)[nH]c(-c3cc(S(=O)(=O)NC4CCN(c5ccc(C#N)c(C(F)(F)F)c5)C4=O)ccc3OCC)nn12` (stereo not drawn) [Compound 32, N-(1-(4-cyano-3-(trifluoromethyl)phenyl)-2-oxopyrrolidin-3-yl)-4-ethoxy-3-(5-methyl-4-oxo-7-propyl-3,4-dihydroimidazo[5,1-f][1,2,4]triazin-2-yl)benzenesulfonamide]: the 50% inhibitory concentration (IC50) in assay [1] is above 100 nM; in assay [2], at most 10 nM; in assay [3] (setting [4]) it was above 200 nM.

Consider `CCCc1nc(C)c2c(=O)[nH]c(-c3cc(N4C(=S)N(c5ccc(C#N)c(C(F)(F)F)c5)C(=O)C4C)ccc3OCC)nn12` (stereo not drawn) [Compound 26, 4-(3-(4-ethoxy-3-(5-methyl-4-oxo-7-propyl-3,4-dihydroimidazo[5,1-f][1,2,4]triazin-2-yl)phenyl)-4-methyl-5-oxo-2-thioxoimidazolidin-1-yl)-2-(trifluoromethyl)benzonitrile], for which the results for the concentration for half-maximal inhibition (IC50) in assay [1], in assay [2] and in assay [3] (setting [4]) were above 100 nM, at most 10 nM and above 200 nM, respectively.

Turning to `CCCc1nc(C)c2c(=O)[nH]c(-c3cc(N4C(=S)N(c5ccc(C#N)c(C(F)(F)F)c5F)C(=O)C45CCC5)ccc3OCC)nn12` [Compound 48, 4-(5-(4-ethoxy-3-(5-methyl-4-oxo-7-propyl-3,4-dihydroimidazo[5,1-f][1,2,4]triazin-2-yl)phenyl)-8-oxo-6-thioxo-5,7-diazaspiro[3.4]octan-7-yl)-3-fluoro-2-(trifluoromethyl)benzonitrile], the IC50 is at most 500 nM in assay [1], at most 10 nM in assay [2] and below 50 nM in assay [3] (setting [4]).

Consider `CCCc1nc(C)c2c(=O)[nH]c(-c3cc(N4C(=S)N(c5cnc(C#N)c(C(F)(F)F)c5)C(=O)C4(C)C)ccc3OCC)nn12` [Compound 20, 5-(3-(4-ethoxy-3-(5-methyl-4-oxo-7-propyl-3,4-dihydroimidazo[5,1-f][1,2,4]triazin-2-yl)phenyl)-4,4-dimethyl-5-oxo-2-thioxoimidazolidin-1-yl)-3-(trifluoromethyl)picolinonitrile], for which the IC50 was at most 500 nM in assay [1], at most 10 nM in assay [2] and 50 to 200 nM in assay [3] (read-out: AR IC50).

As to `CCCc1nc(C)c2c(=O)[nH]c(-c3cc(S(=O)(=O)NC4CCN(c5ccc(C#N)c(C(F)(F)F)c5)C4)ccc3OCC)nn12` (stereo not drawn) [Compound 31, N-(1-(4-cyano-3-(trifluoromethyl)phenyl)pyrrolidin-3-yl)-4-ethoxy-3-(5-methyl-4-oxo-7-propyl-3,4-dihydroimidazo[5,1-f][1,2,4]triazin-2-yl)benzenesulfonamide], the IC50 is 500 to 1000 nM in assay [1], at most 10 nM in assay [2] and 50 to 200 nM in assay [3].

Regarding `CCCc1nc(C)c2c(=O)[nH]c(-c3cc(N4C(=S)N(c5ccc(C#N)c(C(F)(F)F)c5)C(=O)C45CCOC5)ccc3OCC)nn12` (stereo not drawn) [Compound 34, 4-(1-(4-ethoxy-3-(5-methyl-4-oxo-7-propyl-3,4-dihydroimidazo[5,1-f][1,2,4]triazin-2-yl)phenyl)-4-oxo-2-thioxo-7-oxa-1,3-diazaspiro[4.4]nonan-3-yl)-2-(trifluoromethyl)benzonitrile], the results for the IC50 in assay [1], in assay [2] and in assay [3] were at most 500 nM, at most 10 nM and 50 to 200 nM, respectively.

By IC50 is commonly meant the concentration that inhibits the measured activity by half.
